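Cultured in 96-well plates, cells were exposed to test compound for 48 hours across five concentrations. The concentration for full growth arrest is given as TGI.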
Key:
Assay in all cases: NCI tumour cell line growth inhibition, 48 h
SK-MEL-5 melanoma = test system: SK-MEL-5 melanoma
SF-295 CNS = test system: SF-295 CNS
NCI-H522 lung = test system: NCI-H522 lung
A549 NSCLC = test system: A549 NSCLC
EKVX NSCLC = test system: EKVX NSCLC
SF-539 CNS = test system: SF-539 CNS
786-0 renal = test system: 786-0 renal
SW-620 colon = test system: SW-620 colon
NCI-H226 lung = test system: NCI-H226 lung
HL-60(TB) leukemia = test system: HL-60(TB) leukemia
MCF7 breast = test system: MCF7 breast
HOP-62 NSCLC = test system: HOP-62 NSCLC
SK-MEL-28 melanoma = test system: SK-MEL-28 melanoma
OVCAR-4 ovarian = test system: OVCAR-4 ovarian
NCI-H460 lung = test system: NCI-H460 lung
CCRF-CEM leukemia = test system: CCRF-CEM leukemia
T-47D breast = test system: T-47D breast
OVCAR-8 ovarian = test system: OVCAR-8 ovarian
DU-145 prostate = test system: DU-145 prostate
SK-MEL-2 melanoma = test system: SK-MEL-2 melanoma
PC-3 prostate = test system: PC-3 prostate
TK-10 renal = test system: TK-10 renal
OVCAR-3 ovarian = test system: OVCAR-3 ovarian
KM12 colon = test system: KM12 colon
UACC-257 melanoma = test system: UACC-257 melanoma
MALME-3M melanoma = test system: MALME-3M melanoma
MDA-MB-435 = test system: MDA-MB-435
MOLT-4 leukemia = test system: MOLT-4 leukemia
SNB-75 CNS = test system: SNB-75 CNS
A498 renal = test system: A498 renal
SN12C renal = test system: SN12C renal
HOP-92 NSCLC = test system: HOP-92 NSCLC
LOX IMVI melanoma = test system: LOX IMVI melanoma
COLO 205 colon = test system: COLO 205 colon
M14 melanoma = test system: M14 melanoma
CAKI-1 renal = test system: CAKI-1 renal
K-562 leukemia = test system: K-562 leukemia
SF-268 CNS = test system: SF-268 CNS
NCI/ADR-RES ovarian = test system: NCI/ADR-RES ovarian
MDA-MB-231 breast = test system: MDA-MB-231 breast
RXF 393 renal = test system: RXF 393 renal
HCC-2998 colon = test system: HCC-2998 colon
SK-OV-3 ovarian = test system: SK-OV-3 ovarian
HS 578T breast = test system: HS 578T breast
UO-31 renal = test system: UO-31 renal
BT-549 breast = test system: BT-549 breast
OVCAR-5 ovarian = test system: OVCAR-5 ovarian
U251 CNS = test system: U251 CNS
SNB-19 CNS = test system: SNB-19 CNS
SR leukemia = test system: SR leukemia
HCT-116 colon = test system: HCT-116 colon
HT29 colon = test system: HT29 colon
HCT-15 colon = test system: HCT-15 colon
UACC-62 melanoma = test system: UACC-62 melanoma
NCI-H23 lung = test system: NCI-H23 lung
ACHN renal = test system: ACHN renal
RPMI-8226 leukemia = test system: RPMI-8226 leukemia
IGROV1 ovarian = test system: IGROV1 ovarian

`O=C(c1ccco1)N(Cc1cccnc1)C(=S)N(Cc1cccnc1)C(=O)c1ccco1` was tested, and the TGI (SK-MEL-5 melanoma) was 29.1 µM, the TGI (SF-295 CNS) was 77.1 µM and the TGI (NCI-H522 lung) was 29.9 µM. The TGI (A549 NSCLC) was 38.8 µM, the TGI (EKVX NSCLC) was 35.8 µM and the TGI (SF-539 CNS) was 26.7 µM. The TGI (786-0 renal) was 11.8 µM, the TGI (SW-620 colon) was 36.5 µM and the TGI (NCI-H226 lung) was 47.9 µM. The TGI (HL-60(TB) leukemia) was 49 µM, the TGI (MCF7 breast) was 14.7 µM and the TGI (HOP-62 NSCLC) was 44.1 µM. It also gave a TGI (SK-MEL-28 melanoma) of 45.8 µM, a TGI (OVCAR-4 ovarian) of 50 µM and a TGI (NCI-H460 lung) of 55.6 µM. The TGI (CCRF-CEM leukemia) was 14.5 µM, the TGI (T-47D breast) was 63.2 µM and the TGI (OVCAR-8 ovarian) was 66 µM. For the same compound, the TGI (DU-145 prostate) was greater than 100 µM, the TGI (SK-MEL-2 melanoma) was 28.1 µM and the TGI (PC-3 prostate) was 19.7 µM. For the same compound, the TGI (TK-10 renal) was 23.3 µM, the TGI (OVCAR-3 ovarian) was 23.4 µM and the TGI (KM12 colon) was 23.4 µM. It also gave a TGI (UACC-257 melanoma) of 31.7 µM, a TGI (MALME-3M melanoma) of 32.7 µM and a TGI (MDA-MB-435) of 38.7 µM. The TGI (MOLT-4 leukemia) was greater than 100 µM, the TGI (SNB-75 CNS) was 98.7 µM and the TGI (A498 renal) was 62.7 µM. It also gave a TGI (SN12C renal) of 24 µM, a TGI (HOP-92 NSCLC) of 38.7 µM and a TGI (LOX IMVI melanoma) of 27.8 µM. The TGI (COLO 205 colon) was 16.3 µM, the TGI (M14 melanoma) was 27 µM and the TGI (CAKI-1 renal) was 45.4 µM. For the same compound, the TGI (K-562 leukemia) was greater than 100 µM, the TGI (SF-268 CNS) was 43.6 µM and the TGI (NCI/ADR-RES ovarian) was greater than 100 µM. For the same compound, the TGI (MDA-MB-231 breast) was 22.6 µM, the TGI (RXF 393 renal) was 57.4 µM and the TGI (HCC-2998 colon) was 31.8 µM. It also gave a TGI (SK-OV-3 ovarian) of 83.8 µM, a TGI (HS 578T breast) of 56.4 µM and a TGI (UO-31 renal) of 28.8 µM. The TGI (BT-549 breast) was 66.2 µM, the TGI (OVCAR-5 ovarian) was 46.9 µM and the TGI (U251 CNS) was 31.4 µM. The TGI (SNB-19 CNS) was 83.5 µM, the TGI (SR leukemia) was greater than 100 µM and the TGI (HCT-116 colon) was 20.6 µM. For the same compound, the TGI (HT29 colon) was 44.3 µM, the TGI (HCT-15 colon) was 77.7 µM and the TGI (UACC-62 melanoma) was 29.7 µM. It also gave a TGI (NCI-H23 lung) of 61.6 µM and a TGI (ACHN renal) of 30.7 µM.

`CN1CN(c2ccccc2)C2(CCN(Cc3nc4ccccc4s3)CC2)C1=O` showed a TGI (SK-MEL-5 melanoma) of 29.6 µM, a TGI (SF-295 CNS) of 32 µM and a TGI (A549 NSCLC) of 33.4 µM. The TGI (EKVX NSCLC) was 48.3 µM, the TGI (SF-539 CNS) was 32.4 µM and the TGI (786-0 renal) was 31.3 µM. It also gave a TGI (NCI-H226 lung) of 36.2 µM, a TGI (HL-60(TB) leukemia) of 29.1 µM and a TGI (MCF7 breast) of 29.5 µM. The TGI (HOP-62 NSCLC) was 30.7 µM, the TGI (SK-MEL-28 melanoma) was 31.5 µM and the TGI (OVCAR-4 ovarian) was 38 µM. For the same compound, the TGI (CCRF-CEM leukemia) was 41.6 µM, the TGI (T-47D breast) was 32 µM and the TGI (OVCAR-8 ovarian) was 28.8 µM. For the same compound, the TGI (DU-145 prostate) was 38.3 µM, the TGI (SK-MEL-2 melanoma) was 34.1 µM and the TGI (PC-3 prostate) was 28.8 µM. The TGI (TK-10 renal) was 34.9 µM, the TGI (OVCAR-3 ovarian) was 32.4 µM and the TGI (UACC-257 melanoma) was 30.4 µM. For the same compound, the TGI (MALME-3M melanoma) was 31.8 µM, the TGI (MDA-MB-435) was 32.3 µM and the TGI (MOLT-4 leukemia) was 34.3 µM. The TGI (SNB-75 CNS) was 32.6 µM, the TGI (A498 renal) was 30.7 µM and the TGI (SN12C renal) was 31.7 µM. The TGI (HOP-92 NSCLC) was 28.5 µM, the TGI (LOX IMVI melanoma) was 34.9 µM and the TGI (COLO 205 colon) was 32.1 µM. It also gave a TGI (M14 melanoma) of 26.3 µM, a TGI (CAKI-1 renal) of 49.6 µM and a TGI (K-562 leukemia) of 32.4 µM. It also gave a TGI (RPMI-8226 leukemia) of 36.2 µM, a TGI (SF-268 CNS) of 44.3 µM and a TGI (NCI/ADR-RES ovarian) of 33.5 µM. The TGI (MDA-MB-231 breast) was 27.2 µM, the TGI (RXF 393 renal) was 29.9 µM and the TGI (SK-OV-3 ovarian) was 52.7 µM. The TGI (HS 578T breast) was 41.8 µM, the TGI (UO-31 renal) was 29 µM and the TGI (BT-549 breast) was 30.3 µM. For the same compound, the TGI (OVCAR-5 ovarian) was 34.1 µM, the TGI (U251 CNS) was 30 µM and the TGI (IGROV1 ovarian) was 30.4 µM. It also gave a TGI (SNB-19 CNS) of 28.6 µM, a TGI (SR leukemia) of 33.9 µM and a TGI (HCT-116 colon) of 28.1 µM. It also gave a TGI (HT29 colon) of 30.7 µM, a TGI (HCT-15 colon) of 35.1 µM and a TGI (UACC-62 melanoma) of 30.1 µM. For the same compound, the TGI (NCI-H23 lung) was 34.2 µM and the TGI (ACHN renal) was 39.8 µM.

From PubChem BioAssay (NCI)
